From ChEMBL document CHEMBL1201862, “PubChem BioAssay data set” (2004)
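Test compounds were applied to cells in 96-well plates for 48 hours at 5 doses. GI50: concentration for 50% inhibition of growth.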 The source made the active and inactive calls. Rule as the data show it: active = GI50 up to about 1.1 µM and inactive = higher.

What was measured:
Experiment in all cases: DTP human tumour cell line panel, 48 h
OVCAR-8 = test system: OVCAR-8
RPMI-8226 = test system: RPMI-8226
HL-60 = test system: HL-60
Malme-3M = test system: Malme-3M
PC-3 = test system: PC-3
HCC 2998 = test system: HCC 2998
NCI-H226 = test system: NCI-H226
SF-268 = test system: SF-268
SK-MEL-2 = test system: SK-MEL-2
IGROV-1 = test system: IGROV-1
NCI-H460 = test system: NCI-H460
SW-620 = test system: SW-620
M14 = test system: M14
UACC-62 = test system: UACC-62
HOP-62 = test system: HOP-62
HT-29 = test system: HT-29
NCI-H522 = test system: NCI-H522
CAKI-1 = test system: CAKI-1
SK-OV-3 = test system: SK-OV-3
SF-295 = test system: SF-295

SMILES | GI50 (OVCAR-8) | GI50 (RPMI-8226) | GI50 (HL-60) | GI50 (Malme-3M) | GI50 (PC-3) | GI50 (HCC 2998) | GI50 (NCI-H226) | GI50 (SF-268) | GI50 (SK-MEL-2) | GI50 (IGROV-1) | GI50 (NCI-H460) | GI50 (SW-620) | GI50 (M14) | GI50 (UACC-62) | GI50 (HOP-62) | GI50 (HT-29) | GI50 (NCI-H522) | GI50 (CAKI-1) | GI50 (SK-OV-3) | GI50 (SF-295)
CNC(=O)OCc1c(COC(=O)NC)c(C)n(-c2ccc(Br)cc2)c1C | 12.1 µM (inactive) | 11 µM (inactive) | 6.25 µM (inactive) | 17.6 µM (inactive) | 17.2 µM (inactive) | 15.2 µM (inactive) | 1.24 µM (inactive) | 10.7 µM (inactive) | 15.5 µM (inactive) | 3.98 µM (inactive) | 8.2 µM (inactive) | 10.7 µM (inactive) | 13.2 µM (inactive) | 4.89 µM (inactive) | 13.2 µM (inactive) | 5.57 µM (inactive) | 10.2 µM (inactive) | 4.02 µM (inactive) | 10.4 µM (inactive) | 13.1 µM (inactive)
Cc1nnc2sc(-c3ccc(-c4ccccc4Cl)o3)nn12 | 19.8 µM (inactive) | 20.4 µM (inactive) | 19.8 µM (inactive) | 47.3 µM (inactive) | 37.2 µM (inactive) | 21.8 µM (inactive) | 20.8 µM (inactive) | 33.9 µM (inactive) | 26.1 µM (inactive) | 40.6 µM (inactive) | 35.1 µM (inactive) | 20.9 µM (inactive) | 32 µM (inactive) | 35.2 µM (inactive) | > 100 µM (inactive) | 34.4 µM (inactive) | 25.4 µM (inactive) | 56 µM (inactive) | 57.9 µM (inactive) | 32.1 µM (inactive)
CC(=O)/C(=C\Nc1c(C)n(C)n(C)c1=O)C(=O)c1ccccc1 | – | > 50 µM (inactive) | > 50 µM (inactive) | > 50 µM (inactive) | > 50 µM (inactive) | > 50 µM (inactive) | > 50 µM (inactive) | > 50 µM (inactive) | > 50 µM (inactive) | > 50 µM (inactive) | > 50 µM (inactive) | > 50 µM (inactive) | > 50 µM (inactive) | > 50 µM (inactive) | > 50 µM (inactive) | > 50 µM (inactive) | > 50 µM (inactive) | > 50 µM (inactive) | > 50 µM (inactive) | > 50 µM (inactive)
C=CC1CN(C(=O)OCC)N(C(=O)OCC)C1CCc1ccccc1 (configuration not stated) | > 100 µM (inactive) | 30.9 µM (inactive) | 35.6 µM (inactive) | > 100 µM (inactive) | 79.1 µM (inactive) | > 100 µM (inactive) | > 100 µM (inactive) | > 100 µM (inactive) | > 100 µM (inactive) | 81.8 µM (inactive) | 74.1 µM (inactive) | – | > 100 µM (inactive) | > 100 µM (inactive) | > 100 µM (inactive) | > 100 µM (inactive) | 39.3 µM (inactive) | > 100 µM (inactive) | > 100 µM (inactive) | 58.6 µM (inactive)
O=C1NC(N2CCOCC2)=N/C1=C\c1cccs1 | > 100 µM (inactive) | > 100 µM (inactive) | > 100 µM (inactive) | > 100 µM (inactive) | > 100 µM (inactive) | 4.65 µM (inactive) | > 100 µM (inactive) | > 100 µM (inactive) | > 100 µM (inactive) | > 100 µM (inactive) | – | > 100 µM (inactive) | > 100 µM (inactive) | > 100 µM (inactive) | > 100 µM (inactive) | > 100 µM (inactive) | > 100 µM (inactive) | > 100 µM (inactive) | > 100 µM (inactive) | > 100 µM (inactive)
COC(=O)c1c(O)ccc2c1c1c(n2Cc2ccccc2)C(=O)c2ccccc2C1=O | 12.2 µM (inactive) | 8.55 µM (inactive) | 18.3 µM (inactive) | 28.8 µM (inactive) | 13.7 µM (inactive) | 5.01 µM (inactive) | 18.3 µM (inactive) | 14.8 µM (inactive) | 14 µM (inactive) | 12.6 µM (inactive) | 10.7 µM (inactive) | 19.2 µM (inactive) | 20.4 µM (inactive) | – | 23.6 µM (inactive) | 9.23 µM (inactive) | 11 µM (inactive) | 18.7 µM (inactive) | 16.1 µM (inactive) | 19.4 µM (inactive)
CCOC(=O)C1(NC(=O)OC(C)(C)C)CCc2[nH]oc(=O)c2C1 (configuration not stated) | > 100 µM (inactive) | > 100 µM (inactive) | > 100 µM (inactive) | > 100 µM (inactive) | > 100 µM (inactive) | > 100 µM (inactive) | > 100 µM (inactive) | – | > 100 µM (inactive) | > 100 µM (inactive) | > 100 µM (inactive) | > 100 µM (inactive) | > 100 µM (inactive) | > 100 µM (inactive) | > 100 µM (inactive) | > 100 µM (inactive) | > 100 µM (inactive) | > 100 µM (inactive) | > 100 µM (inactive) | > 100 µM (inactive)
O=C1CC2CC(CC3(CO3)C2)C1F (configuration not stated) | > 100 µM (inactive) | > 100 µM (inactive) | > 100 µM (inactive) | > 100 µM (inactive) | > 100 µM (inactive) | > 100 µM (inactive) | > 100 µM (inactive) | > 100 µM (inactive) | > 100 µM (inactive) | > 100 µM (inactive) | > 100 µM (inactive) | – | > 100 µM (inactive) | > 100 µM (inactive) | > 100 µM (inactive) | > 100 µM (inactive) | > 100 µM (inactive) | > 100 µM (inactive) | > 100 µM (inactive) | > 100 µM (inactive)
Cc1nc2c(-c3ccccc3)[nH]c(C)c2c(=O)o1 | 41.5 µM (inactive) | 32.7 µM (inactive) | 15.7 µM (inactive) | – | > 100 µM (inactive) | 57.5 µM (inactive) | 87.5 µM (inactive) | 15.5 µM (inactive) | 46.7 µM (inactive) | 80.5 µM (inactive) | > 100 µM (inactive) | > 100 µM (inactive) | 53.1 µM (inactive) | 23.9 µM (inactive) | 33.3 µM (inactive) | 39.4 µM (inactive) | 19.7 µM (inactive) | 37.2 µM (inactive) | 49.9 µM (inactive) | 79.6 µM (inactive)
CCOC(=O)C1=C(N)N(c2ccccc2)/C(=C2\SC(=S)N(c3ccc(C)cc3)C2=O)S1 | 33.3 µM (inactive) | 93.1 µM (inactive) | 71.6 µM (inactive) | 51.1 µM (inactive) | 51.4 µM (inactive) | 50.1 µM (inactive) | 33.6 µM (inactive) | 29.5 µM (inactive) | 73.3 µM (inactive) | > 100 µM (inactive) | 75.2 µM (inactive) | > 100 µM (inactive) | > 100 µM (inactive) | 88.7 µM (inactive) | 22.2 µM (inactive) | 47.3 µM (inactive) | 34.3 µM (inactive) | – | 26.9 µM (inactive) | 21 µM (inactive)
CCc1c(-c2ccc(OC)cc2)c(=O)oc2cc(O)ccc12 | 49.1 µM (inactive) | 18.6 µM (inactive) | 16.7 µM (inactive) | 25.5 µM (inactive) | 24.7 µM (inactive) | 72.3 µM (inactive) | 56.6 µM (inactive) | 41.5 µM (inactive) | > 100 µM (inactive) | 42.4 µM (inactive) | 23.9 µM (inactive) | 51.3 µM (inactive) | 23.9 µM (inactive) | 19.4 µM (inactive) | 54 µM (inactive) | 40.7 µM (inactive) | 29.5 µM (inactive) | 39.3 µM (inactive) | – | 35.6 µM (inactive)
Cc1cc(OCC(=O)N/N=C/C(Br)=C/c2ccccc2)nc(SCC(=O)N/N=C/C(Br)=C/c2ccccc2)n1 | – | 68.5 µM (inactive) | > 100 µM (inactive) | – | 54.1 µM (inactive) | 23 µM (inactive) | – | 48.2 µM (inactive) | – | 52.2 µM (inactive) | 28.2 µM (inactive) | > 100 µM (inactive) | > 100 µM (inactive) | > 100 µM (inactive) | 51.5 µM (inactive) | > 100 µM (inactive) | 26.6 µM (inactive) | > 100 µM (inactive) | – | > 100 µM (inactive)
CSc1cnn(CCC#N)c(=O)n1 | > 100 µM (inactive) | > 100 µM (inactive) | 33.2 µM (inactive) | > 100 µM (inactive) | > 100 µM (inactive) | > 100 µM (inactive) | > 100 µM (inactive) | > 100 µM (inactive) | – | > 100 µM (inactive) | – | 74.6 µM (inactive) | > 100 µM (inactive) | > 100 µM (inactive) | > 100 µM (inactive) | > 100 µM (inactive) | > 100 µM (inactive) | > 100 µM (inactive) | > 100 µM (inactive) | > 100 µM (inactive)
O=C(NNC(=S)NCc1ccccc1)c1csc(NC(=S)NC2CCCCC2)n1 | 39.4 µM (inactive) | 25.9 µM (inactive) | > 100 µM (inactive) | 38.6 µM (inactive) | 37.3 µM (inactive) | 37.3 µM (inactive) | 5.93 µM (inactive) | 27.6 µM (inactive) | 27 µM (inactive) | 31.3 µM (inactive) | – | 32.5 µM (inactive) | 32.6 µM (inactive) | 40.1 µM (inactive) | 64.1 µM (inactive) | 3.42 µM (inactive) | 35.1 µM (inactive) | 47.3 µM (inactive) | 50.6 µM (inactive) | 42.1 µM (inactive)
N#Cc1c(N)[nH]c2ccc(Sc3ccccc3)cc12 | 0.358 µM (active) | 0.361 µM (active) | 0.0333 µM (active) | – | 0.275 µM (active) | 0.516 µM (active) | 0.457 µM (active) | 0.248 µM (active) | 0.338 µM (active) | 0.198 µM (active) | 0.201 µM (active) | 0.121 µM (active) | 0.0828 µM (active) | 0.133 µM (active) | 0.456 µM (active) | 0.21 µM (active) | 0.112 µM (active) | 0.216 µM (active) | 0.53 µM (active) | 0.23 µM (active)
